Test results published in patent US20240150356A1, “Pyrimidine amide compounds and use thereof” (ALPHALA CO., LTD., priority 2019, published 2024).

Tests used:
Assay type in all cases: cell-based
[1] = test system: NCI-H460 (human lung cancer cell line); assay: In vitro MTS cell viability assay (NCI-60 methodology), NCI-H460; settings: NCI-H460 cells, read-out: NCI-H460 LC50
Protocol: (§1) The cell viability measurement is based on the NCI-60 screening methodology (Nat. Rev. Cancer 6, 813-823, 2006). Briefly, cells are inoculated into 96-well plates at the optimal plating density. After 24 h, one of the two plates for Hep3B cell line is processed to determine a time zero cell viability (Tz) by MTS assay (Promega). Compounds are added over a 2-fold serial dilution to provide a total five drug concentrations plus DMSO control. Plates are incubated for a further 2 days, then measured cell viability by MTS assay [control growth (C) and test growth in the presence of drug at the five concentration levels (Ti)]. The LC50 is calculated from [(Ti−Tz)/Tz]×100=−50, which is the drug concentration resulting in a 50% reduction at the end of the drug treatment as compared to that at the beginning.
(§2) The compounds prepared in Tables 1-10 were tested in three in vitro assays, and the results are shown in Tables 1-10 for Hep3B and Table 11 for SW480 and NCI-H460 shown below. Herein, Hep3B refers to hepatocellular carcinoma cell line, SW480 refers to colon adenocarcinoma cell line, and NCI-H460 refers to human lung cancer cell line.
(§3) Shown in Tables 11 are in vitro activities of exemplary compounds of formula (I).

[2] = test system: SW480 (colon adenocarcinoma cell line); assay: In vitro MTS cell viability assay (NCI-60 methodology), SW480; settings: Homo sapiens, SW480 cells, read-out: SW480 LC50
Protocol: as §1, §2, §3

[3] = test system: Hep3B cells (hepatocellular carcinoma cell line); assay: In vitro MTS cell viability assay (NCI-60 methodology), Hep3B; settings: Homo sapiens, 48 h, Table 6, MTS, 2 days drug incubation, 50% reduction vs time zero, read-out: Hep3B LC50
Method in brief: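 Following NCI-60 method, MTS viability of Hep3B measured 24 h after plating (time zero) and after a further 2-day exposure to five concentrations (2-fold series). LC50 defined where [(Ti−Tz)/Tz]×100 = −50.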

Row | Structure (SMILES) | CC50 [1] | CC50 [2] | LC50 [3]
1 | COc1ccc(-n2ncc3c(NC(=O)c4ccc([N+](=O)[O-])s4)nc(-c4ccc(F)nc4)nc32)cc1 [Compound 6-19, N-(6-(6-fluoropyridin-3-yl)-1-(4-methoxyphenyl)-1H-pyrazolo[3,4-d]pyrimidin-4-yl)-5-nitrothiophene-2-carboxamide] | 220 nM | 450 nM | 60 nM
2 | CCOCCOCCOc1ccc(-c2nc(NC(=O)c3ccc([N+](=O)[O-])s3)c3cnn(-c4ccc(OC)cc4)c3n2)cn1 [Compound 6-28, N-(6-(6-(2-(2-ethoxyethoxy)ethoxy)pyridin-3-yl)-1-(4-methoxyphenyl)-1H-pyrazolo[3,4-d]pyrimidin-4-yl)-5-nitrothiophene-2-carboxamide] | 680 nM | 3440 nM | 190 nM
3 | O=C(Nc1nc(-c2ccc(F)cc2)nc2c1cnn2-c1cccc(Cl)c1)c1ccc([N+](=O)[O-])s1 [Compound 6-35, N-(1-(3-chlorophenyl)-6-(4-fluorophenyl)-1H-pyrazolo[3,4-d]pyrimidin-4-yl)-5-nitrothiophene-2-carboxamide] | 500 nM | 520 nM | 110 nM
4 | O=C(Nc1nc(-c2ccc(F)nc2)nc2c1cnn2-c1cccc(Cl)c1)c1ccc([N+](=O)[O-])s1 [Compound 6-36, N-(1-(3-chlorophenyl)-6-(6-fluoropyridin-3-yl)-1H-pyrazolo[3,4-d]pyrimidin-4-yl)-5-nitrothiophene-2-carboxamide] | 670 nM | 2800 nM | 90 nM
5 | O=C(Nc1nc(-c2ccc3c(c2)OCO3)nc2c1cnn2-c1cccc(Cl)c1)c1ccc([N+](=O)[O-])s1 [Compound 6-39, N-(6-(benzo[d][1,3]dioxol-5-yl)-1-(3-chlorophenyl)-1H-pyrazolo[3,4-d]pyrimidin-4-yl)-5-nitrothiophene-2-carboxamide] | 1070 nM | 3180 nM | 270 nM
6 | CCOCCOCCOc1ccc(-c2nc(NC(=O)c3ccc([N+](=O)[O-])s3)c3cnn(-c4cccc(Cl)c4)c3n2)cn1 [Compound 6-45, N-(1-(3-chlorophenyl)-6-(6-(2-(2-ethoxyethoxy)ethoxy)pyridin-3-yl)-1H-pyrazolo[3,4-d]pyrimidin-4-yl)-5-nitrothiophene-2-carboxamide] | 570 nM | 580 nM | 220 nM
7 | CCOCCOCCOc1ccc(-c2nc(NC(=O)c3ccc([N+](=O)[O-])s3)c3cnn(-c4ccc(Cl)cc4)c3n2)cn1 [Compound 6-53, N-(1-(4-chlorophenyl)-6-(6-(2-(2-ethoxyethoxy)ethoxy)pyridin-3-yl)-1H-pyrazolo[3,4-d]pyrimidin-4-yl)-5-nitrothiophene-2-carboxamide] | 1090 nM | 1040 nM | 130 nM
8 | O=C(Nc1nc(-c2ccc(F)nc2)nc2c1cnn2-c1ccc(C(F)(F)F)cc1)c1ccc([N+](=O)[O-])s1 [Compound 6-54, N-(6-(6-fluoropyridin-3-yl)-1-(4-(trifluoromethyl)phenyl)-1H-pyrazolo[3,4-d]pyrimidin-4-yl)-5-nitrothiophene-2-carboxamide] | 330 nM | 340 nM | 130 nM
9 | COc1nc(NC(=O)c2ccc([N+](=O)[O-])s2)c2cnn(-c3ccc(C(C)(C)C)cc3)c2n1 [Compound 6-57, N-(1-(4-(tert-butyl)phenyl)-6-methoxy-1H-pyrazolo[3,4-d]pyrimidin-4-yl)-5-nitrothiophene-2-carboxamide] | 2750 nM | 1240 nM | 700 nM
10 | CN(C)CCOc1nc(NC(=O)c2ccc([N+](=O)[O-])s2)c2cnn(-c3ccc(C(C)(C)C)cc3)c2n1 [Compound 6-58, N-(1-(4-(tert-butyl)phenyl)-6-(2-(dimethylamino)ethoxy)-1H-pyrazolo[3,4-d]pyrimidin-4-yl)-5-nitrothiophene-2-carboxamide] | 3970 nM | 4090 nM | 690 nM
11 | CC(C)(C)c1ccc(-n2ncc3c(NC(=O)c4ccc([N+](=O)[O-])s4)nc(N4CCC(F)(F)C4)nc32)cc1 [Compound 6-66, N-(1-(4-(tert-butyl)phenyl)-6-(3,3-difluoropyrrolidin-1-yl)-1H-pyrazolo[3,4,d]pyrimidin-4-yl)-5-nitrothiophene-2-carboxamide] | 410 nM | > 10000 nM | 130 nM
12 | COC(=O)[C@@H]1CCCN1c1nc(NC(=O)c2ccc([N+](=O)[O-])s2)c2cnn(-c3ccc(C(C)(C)C)cc3)c2n1 [Compound 6-69, methyl(1-(4-(tert-butyl)phenyl)4-(5-nitrothiophene-2-carboxamido)-1H-pyrazolo[3,4-d]pyrimidin-6-yl)-L-prolinate] | 2760 nM | 890 nM | 440 nM
13 | CC(C)(C)c1ccc(-n2ncc3c(NC(=O)c4ccc([N+](=O)[O-])s4)nc(N4CCC[C@H]4CO)nc32)cc1 [Compound 6-71, (S)—N-(1-(4-(tert-butyl)phenyl)-6-(2-(hydroxymethyl)pyrrolidin-1-yl)-1H-pyrazolo[3,4-d]pyrimidin-4-yl)-5-nitrothiophene-2-carboxamide] | 440 nM | 980 nM | 280 nM
14 | CC(C)(C)c1ccc(-n2ncc3c(NC(=O)c4ccc([N+](=O)[O-])s4)nc(-n4cccn4)nc32)cc1 [Compound 6-75, N-(1-(4-tert-butyl)phenyl)-6-(4-(1H-pyrazol-1-yl)-1H-pyrazolo[3,4-d]pyrimidin-4-yl)-5-nitrothiophene-2-carboxamide] | 1280 nM | 5480 nM | 240 nM
15 | O=C(Nc1nc(N2CCC(F)(F)C2)nc2c1cnn2-c1ccc(OC(F)(F)F)cc1)c1ccc([N+](=O)[O-])s1 [Compound 6-85, N-(6-(3,3-difluoropyrrolidin-1-yl)-1-(4-(trifluoromethoxy)phenyl)-1H-pyrazolo[3,4-d]pyrimidin-4-yl)-5-nitrothiophene-2-carboxamide] | 560 nM | 680 nM | 200 nM
16 | O=C(Nc1nc(-c2ccc(F)cc2)nc2c1cnn2-c1cccc(F)c1)c1ccc([N+](=O)[O-])s1 [Compound 6-89, N-(1-(3-fluorophenyl)-6-(4-fluorophenyl)-1H-pyrazolo[3,4-d]pyrimidin-4-yl)-5-nitrothiophene-2-carboxamide] | 710 nM | 810 nM | 120 nM
17 | O=C(Nc1nc(-c2ccc(F)nc2)nc2c1cnn2-c1cccc(F)c1)c1ccc([N+](=O)[O-])s1 [Compound 6-90, N-(1-(3-fluorophenyl)-6-(6-fluoropyridin-3-yl)-1H-pyrazolo[3,4-d]pyrimidin-4-yl)-5-nitrothiophene-2-carboxamide] | 560 nM | 540 nM | 140 nM
18 | CCOC[C@@H]1CCCN1c1nc(NC(=O)c2ccc([N+](=O)[O-])s2)c2cnn(-c3ccc(F)cc3)c2n1 [Compound 6-104] | 860 nM | 650 nM | 380 nM
19 | O=C(Nc1nc(N2CCC[C@H]2COc2ccccc2)nc2c1cnn2-c1ccc(F)cc1)c1ccc([N+](=O)[O-])s1 [Compound 6-106, (S)—N-(1-(4-fluorophenyl)-6-(2-(phenoxymethyl)pyrrolidin-1-yl)-1H-pyrazolo[3,4-d]pyrimidin-4-yl)-5-nitrothiophene-2-carboxamide] | 1650 nM | 500 nM | 430 nM
20 | O=C(Nc1nc(-c2ccccc2)nc2c1cnn2-c1ccc(F)cc1)c1ccc([N+](=O)[O-])s1 [Compound 6-110, N-(1-(4-fluorophenyl)-6-phenyl-1H-pyrazolo[3,4-d]pyrimidin-4-yl)-5-nitrothiophene-2-carboxamide] | 1410 nM | 1250 nM | 230 nM
21 | O=C(Nc1nc(-c2cccnc2)nc2c1cnn2-c1ccc(F)cc1)c1ccc([N+](=O)[O-])s1 [Compound 6-111, N-(1-(4-fluorophenyl)-6-(pyridin-3-yl)-1H-pyrazolo[3,4-d]pyrimidin-4-yl)-5-nitrothiophene-2-carboxamide] | 1870 nM | > 4000 nM | 90 nM
22 | O=C(Nc1nc(-c2cncnc2)nc2c1cnn2-c1ccc(F)cc1)c1ccc([N+](=O)[O-])s1 [Compound 6-112, N-(1-(4-fluorophenyl)-6-(pyrimidin-5-yl)-1H-pyrazolo[3,4-d]pyrimidin-4-yl)-5-nitrothiophene-2-carboxamide] | 970 nM | 810 nM | 220 nM
23 | O=C(Nc1nc(-c2cccc(F)c2)nc2c1cnn2-c1ccc(F)cc1)c1ccc([N+](=O)[O-])s1 [Compound 6-114, N-(6-(3-fluorophenyl)-1-(4-fluorophenyl)-1H-pyrazolo[3,4-d]pyrimidin-4-yl)-5-nitrothiophene-2-carboxamide] | 350 nM | 840 nM | 200 nM
24 | O=C(Nc1nc(-c2ccc(F)cc2)nc2c1cnn2-c1ccc(F)cc1)c1ccc([N+](=O)[O-])s1 [Compound 6-115, N-(1,6-bis(4-fluorophenyl)-1H-pyrazolo[3,4-d]pyrimidin-4-yl)-5-nitrothiophene-2-carboxamide] | 1130 nM | 1910 nM | 220 nM
